According to patent US10954232B2, “Pyrazole derivative as ALK5 inhibitor and uses thereof” (HANMI PHARMACEUTICAL CO., LTD., priority 2016, dated 2021):

The compounds below were run against T1, ALK5 kinase (Homo sapiens, UniProt P36897) (assay: Activity inhibition test on ALK5 enzyme (LanthaScreen Eu binding kinase assay)). Conditions: kinase tracer 178, 60 minutes at room temperature.
T1 construct: GST; purchased Thermo Fisher Scientific Solutions
T1 sequence (P36897 34-503): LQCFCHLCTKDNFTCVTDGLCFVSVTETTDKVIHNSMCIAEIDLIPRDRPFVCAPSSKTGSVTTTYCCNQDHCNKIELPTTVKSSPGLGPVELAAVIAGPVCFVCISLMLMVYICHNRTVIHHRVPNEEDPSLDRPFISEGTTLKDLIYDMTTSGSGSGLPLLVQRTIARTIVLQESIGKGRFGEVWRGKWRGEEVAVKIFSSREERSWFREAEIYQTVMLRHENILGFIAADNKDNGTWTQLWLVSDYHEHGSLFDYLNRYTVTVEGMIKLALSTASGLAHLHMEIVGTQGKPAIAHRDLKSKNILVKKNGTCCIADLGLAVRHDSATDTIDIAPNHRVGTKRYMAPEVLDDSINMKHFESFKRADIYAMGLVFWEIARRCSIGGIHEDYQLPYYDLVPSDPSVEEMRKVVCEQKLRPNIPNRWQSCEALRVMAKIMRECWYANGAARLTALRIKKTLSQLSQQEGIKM
Description: For each of the compounds obtained in Examples 1 to 227, inhibitory activity against ALK5 kinase was measured.
For this, a LanthaScreen Eu binding kinase assay method was used, and ALK5 kinase, a kinase buffer, a kinase tracer 178, and a LanthaScreen Eu-GST binding antibody were all purchased from Thermo Fisher Scientific Solutions. Each of the compounds was made into a 10 mM DMSO solution, and diluted by 1/10 to a concentration of 1 μM to 0.0001 μM with an aqueous solution containing 4% DMSO. The test was performed in 384 well plates (well polystyrene low volume round-bottomed plates). First, 5 μL of the diluted compound solution was added, then 5 μL of the kinase/antibody mixture solution was introduced thereto, and 5 μL of the tracer was introduced thereto. Herein, these were added to each well so that the final kinase concentration became 5 nM, the final Eu-GST binding antibody concentration 2 nM, and the kinase tracer 178 concentration 10 nM, and the result was reacted in a stirrer for 60 minutes at room temperature. Then a fluorescence value was measured using a fluorescence meter (molecular device) ([…], 665 nm emission filter). Herein, as for the degree of compound activity to inhibit the kinase reaction, a phosphorylate rate was calculated from 0% to 100% with respect to a control group according to the protocol included in the kit, and a 50% inhibitory concentration (IC50) value was calculated by obtaining the x-axis concentration in the region where 50% activity was inhibited.

IC50 | Structure (SMILES)
5.6 nM | Cc1cccc(-n2nc(C(=O)Nc3ccc(S(=O)(=O)NCC(F)(F)F)cc3)cc2-c2ccc3ncsc3c2)n1 [Example 58, 5-(benzo[d]thiazol-6-yl)-1-(6-methylpyridin-2-yl)-N-(4-(N-(2,2,2-trifluoroethyl)sulfamoyl)phenyl)-1H-pyrazole-3-carboxyamide]
20 nM | Cc1cccc(-n2nc(C(=O)Nc3ccc(CS(C)(=O)=O)cc3)cc2-c2ccc3ncsc3c2)n1 [Example 59, 5-(benzo[d]thiazol-6-yl)-1-(6-methylpyridin-2-yl)-N-(4-((methylsulfonyl)methyl)phenyl)-1H-pyrazole-3-carboxyamide]
13 nM | Cc1cccc(-n2nc(C(=O)Nc3cccc(CS(N)(=O)=O)c3)cc2-c2ccc3ncsc3c2)n1 [Example 60, 5-(benzo[d]thiazol-6-yl)-1-(6-methylpyridin-2-yl)-N-(3-(sulfamoylmethyl)phenyl)-1H-pyrazole-3-carboxyamide]
10 to 100 nM | Cc1cccc(-n2nc(C(=O)Nc3ccc(CS(N)(=O)=O)cc3)cc2-c2ccc3ncsc3c2)n1 [Example 61, 5-(benzo[d]thiazol-6-yl)-1-(6-methylpyridin-2-yl)-N-(4-(sulfamoylmethyl)phenyl)-1H-pyrazole-3-carboxyamide]
16 nM | Cc1cccc(-n2nc(C(=O)Nc3ccc(F)c(CS(N)(=O)=O)c3)cc2-c2ccc3ncsc3c2)n1 [Example 62, 5-(benzo[d]thiazol-6-yl)-N-(4-fluoro-3-(sulfamoylmethyl)phenyl)-1-(6-methylpyridin-2-yl)-1H-pyrazole-3-carboxyamide]
3.7 nM | Cc1cccc(-n2nc(C(=O)Nc3ccc(NC4CCS(=O)(=O)C4)cc3)cc2-c2ccc3ncsc3c2)n1 (centres unmarked) [Example 63, 5-(benzo[d]thiazol-6-yl)-N-(4-((1,1-dioxidotetrahydrothiophen-3-yl)amino)phenyl)-1-(6-methylpyridin-2-yl)-1H-pyrazole-3-carboxyamide]
< 10 nM | Cc1cccc(-n2nc(C(=O)Nc3ccncc3)cc2-c2ccc3ncsc3c2)n1 [Example 64, 5-(benzo[d]thiazol-6-yl)-1-(6-methylpyridin-2-yl)-N-(pyridin-4-yl)-1H-pyrazole-3-carboxyamide]
< 10 nM | COc1ccc(NC(=O)c2cc(-c3ccc4ncsc4c3)n(-c3cccc(C)n3)n2)cn1 [Example 65, 5-(benzo[d]thiazol-6-yl)-N-(6-methoxypyridin-3-yl)-1-(6-methylpyridin-2-yl)-1H-pyrazole-3-carboxyamide]
3.2 nM | COc1cc(NC(=O)c2cc(-c3ccc4ncsc4c3)n(-c3cccc(C)n3)n2)ccn1 [Example 66, 5-(benzo[d]thiazol-6-yl)-N-(2-methoxypyridin-4-yl)-1-(6-methylpyridin-2-yl)-1H-pyrazole-3-carboxyamide]
9.6 nM | CSc1ccc(NC(=O)c2cc(-c3ccc4ncsc4c3)n(-c3cccc(C)n3)n2)cn1 [Example 67, 5-(benzo[d]thiazol-6-yl)-N-(6-(methylthio)pyridin-3-yl)-1-(6-methylpyridin-2-yl)-1H-pyrazole-3-carboxyamide]
65 nM | Cc1cccc(-n2nc(C(=O)Nc3cccc(S(C)(=O)=O)n3)cc2-c2ccc3ncsc3c2)n1 [Example 68, 5-(benzo[d]thiazol-6-yl)-1-(6-methylpyridin-2-yl)-N-(6-(methylsulfonyl)pyridin-2-yl)-1H-pyrazole-3-carboxyamide]
4.9 nM | Cc1cccc(-n2nc(C(=O)Nc3ccc(S(C)(=O)=O)nc3)cc2-c2ccc3ncsc3c2)n1 [Example 69, 5-(benzo[d]thiazol-6-yl)-N-(6-(methylsulfonyl)pyridin-3-yl)-1-(6-methylpyridin-2-yl)-1H-pyrazole-3-carboxyamide]
4.6 nM | Cc1cccc(-n2nc(C(=O)Nc3ccnc(S(C)(=O)=O)c3)cc2-c2ccc3ncsc3c2)n1 [Example 70, 5-(benzo[d]thiazol-6-yl)-1-(6-methylpyridin-2-yl)-N-(2-(methylsulfonyl)pyridin-4-yl)-1H-pyrazole-3-carboxyamide]
8 nM | Cc1cccc(-n2nc(C(=O)Nc3ccc(F)nc3)cc2-c2ccc3ncsc3c2)n1 [Example 71, 5-(benzo[d]thiazol-6-yl)-N-(6-fluoropyridin-3-yl)-1-(6-methylpyridin-2-yl)-1H-pyrazole-3-carboxyamide]
11 nM | Cc1cccc(-n2nc(C(=O)Nc3ccnc(F)c3)cc2-c2ccc3ncsc3c2)n1 [Example 72, 5-(benzo[d]thiazol-6-yl)-N-(2-fluoropyridin-4-yl)-1-(6-methylpyridin-2-yl)-1H-pyrazole-3-carboxyamide]
5.8 nM | Cc1cccc(-n2nc(C(=O)Nc3ccc(Cl)nc3)cc2-c2ccc3ncsc3c2)n1 [Example 73, 5-(benzo[d]thiazol-6-yl)-N-(6-chloropyridin-3-yl)-1-(6-methylpyridin-2-yl)-1H-pyrazole-3-carboxyamide]
2.3 nM | Cc1cccc(-n2nc(C(=O)Nc3ccnc(Cl)c3)cc2-c2ccc3ncsc3c2)n1 [Example 74, 5-(benzo[d]thiazol-6-yl)-N-(2-chloropyridin-4-yl)-1-(6-methylpyridin-2-yl)-1H-pyrazole-3-carboxyamide]
7.4 nM | Cc1cccc(-n2nc(C(=O)Nc3nccs3)cc2-c2ccc3ncsc3c2)n1 [Example 75, 5-(benzo[d]thiazol-6-yl)-1-(6-methylpyridin-2-yl)-N-(thiazol-2-yl)-1H-pyrazole-3-carboxyamide]
~10 nM | Cc1cccc(-n2nc(C(=O)NCc3ccccc3)cc2-c2ccc3ncsc3c2)n1 [Example 76, 5-(benzo[d]thiazol-6-yl)-N-benzyl-1-(6-methylpyridin-2-yl)-1H-pyrazole-3-carboxyamide]
7.2 nM | Cc1cccc(-n2nc(C(=O)NCc3ccccc3F)cc2-c2ccc3ncsc3c2)n1 [Example 77, 5-(benzo[d]thiazol-6-yl)-N-(2-fluorobenzyl)-1-(6-methylpyridin-2-yl)-1H-pyrazole-3-carboxyamide]
3.4 nM | Cc1cccc(-n2nc(C(=O)NCc3cccc(F)c3)cc2-c2ccc3ncsc3c2)n1 [Example 78, 5-(benzo[d]thiazol-6-yl)-N-(3-fluorobenzyl)-1-(6-methylpyridin-2-yl)-1H-pyrazole-3-carboxyamide]
5.6 nM | Cc1cccc(-n2nc(C(=O)NCc3ccc(F)cc3)cc2-c2ccc3ncsc3c2)n1 [Example 79, 5-(benzo[d]thiazol-6-yl)-N-(4-fluorobenzyl)-1-(6-methylpyridin-2-yl)-1H-pyrazole-3-carboxyamide]
1.3 nM | Cc1cccc(-n2nc(C(=O)Nc3cnn(S(C)(=O)=O)c3)cc2-c2ccc3ncsc3c2)n1 [Example 80, 5-(benzo[d]thiazol-6-yl)-1-(6-methylpyridin-2-yl)-N-(1-(methylsulfonyl)-1H-pyrazol-4-yl)-1H-pyrazole-3-carboxyamide]
1.5 nM | Cc1cccc(-n2nc(C(=O)Nc3cnn(S(=O)(=O)C4CC4)c3)cc2-c2ccc3ncsc3c2)n1 [Example 81, 5-(benzo[d]thiazol-6-yl)-N-(1-(cyclopropylsulfonyl)-1H-pyrazol-4-yl)-1-(6-methylpyridin-2-yl)-1H-pyrazole-3-carboxyamide]
2.7 nM | Cc1cccc(-n2nc(C(=O)Nc3cccc(O)c3)cc2-c2ccc3ncsc3c2)n1 [Example 82, 5-(benzo[d]thiazol-6-yl)-N-(3-hydroxyphenyl)-1-(6-methylpyridin-2-yl)-1H-pyrazole-3-carboxyamide]
0.7 nM | Cc1cccc(-n2nc(C(=O)Nc3ccc(O)cc3)cc2-c2ccc3ncsc3c2)n1 [Example 83, 5-(benzo[d]thiazol-6-yl)-N-(4-hydroxyphenyl)-1-(6-methylpyridin-2-yl)-1H-pyrazole-3-carboxyamide]
3.9 nM | Cc1cccc(-n2nc(C(=O)Nc3cccc(CO)c3)cc2-c2ccc3ncsc3c2)n1 [Example 84, 5-(benzo[d]thiazol-6-yl)-N-(3-(hydroxymethyl)phenyl)-1-(6-methylpyridin-2-yl)-1H-pyrazole-3-carboxyamide]
3.8 nM | Cc1cccc(-n2nc(C(=O)Nc3ccc(CO)cc3)cc2-c2ccc3ncsc3c2)n1 [Example 85, 5-(benzo[d]thiazol-6-yl)-N-(4-(hydroxymethyl)phenyl)-1-(6-methylpyridin-2-yl)-1H-pyrazole-3-carboxyamide]
1.1 nM | Cc1cccc(-n2nc(C(=O)Nc3ccc(N)cc3)cc2-c2ccc3ncsc3c2)n1 [Example 86, N-(4-aminophenyl)-5-(benzo[d]thiazol-6-yl)-1-(6-methylpyridin-2-yl)-1H-pyrazole-3-carboxyamide]
